Measured values: patent publication US4347319A, “Microbiological epoxidation process” (priority 1980, dated 1982)
Where two headings read alike, the source gives them in different places.

Columns and labels:
[1] = system: Methylobacter chroococcum (CRL 23 PM8) NRRL B-11,215; assay: Oxidation by washed cell suspensions of methane-grown cells; assay type: cell-based
Procedure, shortened: (§1)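 Cells grown 2 days at 30 °C under methane/air 1:1 (pH 7.0 medium), washed and resuspended in 0.15 M phosphate pH 7.0. Suspension (2 mg cells) incubated at 30 °C, 300 rpm under substrate/O2 1:1 (liquid substrates 10 μl); products measured periodically by GC with flame ionization detection.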

[2] = system: Methylococcus minimus (CRL 24 PM12) NRRL B-11,220; assay: as above; assay type: cell-based
Procedure, shortened: as §1

[3] = system: Methylomonas agile (CRL 22 PM9) NRRL B-11,209; assay: as above; assay type: cell-based
Procedure, shortened: as §1

[4] = system: Methylomonas rubrum (CRL 20 PM6) NRRL B-11,211; assay: as above; assay type: cell-based; conditions: for Oxidative Conversion Rates: methane-grown washed cells, 30° C., methane to methanol, alkene to 1,2-epoxide
Procedure, shortened: as §1

[5] = system: Methylomonas streptobacterium (CRL 17 PM3) NRRL B-11,208; assay: as above; assay type: cell-based
Procedure, shortened: as §1

[6] = target: T1, cell fractions of Methylosinus trichosporium (OB3b, NRRL B-11,196) (Methylosinus trichosporium, UniProt Q50541+Q9KX50+Q9KX51); assay type: biochemical; conditions: for Oxidizing Activity (rate of oxidation) in cell fraction: propylene to propylene oxide, methane to methanol, 30° C.; for % Distribution in Cell Fraction: propylene-epoxidizing / methane-hydroxylating activity; for Conversion Rate: particulate P(40) fraction, n-propane to 2-propanol, n-butane to 2-butanol
T1 sequence (Q9KX50 40-431): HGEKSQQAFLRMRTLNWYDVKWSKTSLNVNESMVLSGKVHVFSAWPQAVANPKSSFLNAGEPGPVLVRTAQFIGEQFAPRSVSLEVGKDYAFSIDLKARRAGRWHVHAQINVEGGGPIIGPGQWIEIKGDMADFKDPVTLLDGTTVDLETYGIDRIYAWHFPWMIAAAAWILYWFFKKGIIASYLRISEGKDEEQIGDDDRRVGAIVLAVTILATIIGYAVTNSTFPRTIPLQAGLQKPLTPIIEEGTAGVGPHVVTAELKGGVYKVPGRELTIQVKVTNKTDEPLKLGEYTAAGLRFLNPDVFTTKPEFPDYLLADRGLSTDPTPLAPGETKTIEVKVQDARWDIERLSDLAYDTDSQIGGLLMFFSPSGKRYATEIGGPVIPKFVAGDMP
T1 sequence (Q50541 1-252): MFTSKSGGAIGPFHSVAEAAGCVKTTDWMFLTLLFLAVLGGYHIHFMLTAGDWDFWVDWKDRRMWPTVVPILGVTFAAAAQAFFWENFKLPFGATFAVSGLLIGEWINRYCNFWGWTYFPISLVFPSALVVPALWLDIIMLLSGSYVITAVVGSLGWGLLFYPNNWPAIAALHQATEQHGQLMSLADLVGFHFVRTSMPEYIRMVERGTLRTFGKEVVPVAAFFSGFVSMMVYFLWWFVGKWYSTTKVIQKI
T1 sequence (Q9KX51 1-256): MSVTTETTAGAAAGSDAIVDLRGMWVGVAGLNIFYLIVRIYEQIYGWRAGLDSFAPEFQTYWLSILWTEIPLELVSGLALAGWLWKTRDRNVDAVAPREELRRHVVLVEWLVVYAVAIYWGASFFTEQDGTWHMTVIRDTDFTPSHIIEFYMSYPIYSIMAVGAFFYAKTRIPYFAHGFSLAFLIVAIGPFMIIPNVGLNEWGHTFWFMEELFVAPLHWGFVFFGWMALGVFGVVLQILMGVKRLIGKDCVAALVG
Description: Cells were washed twice with 25 mM potassium phosphate buffer, pH 7.0 containing 5 mM MgCl2. Cells were suspended in the same buffer. The cell suspensions at 4° C. were disintegrated by a single passage through a French Pressure cell (15,000 lb./in.^2) and centrifuged at 5000×g. for 15 min. to remove unbroken bacteria. The supernatant solution (crude extract) was then centrifuged at 40,000×g. for 30 min., yielding particulate P(40) and soluble S(40) fractions. The S(40) fraction was subsequently centrifuged at 80,000×g. for 60 min., yielding particulate P(80) and soluble S(80) fractions. The particulate fractions [P(40) and P(80)] were suspended in 25 mM potassium phosphate buffer, pH 7.0, containing 5 mM MgCl2 and homogenized at 4° C.
The oxidation of methane and propylene by particulate [(P)40 and (P)80] fractions and soluble [S(80)] fraction was measured at 30° C. by estimating the production of methanol and propylene oxide, respectively. The reaction mixtures contained in […]: 150 mM potassium phosphate buffer, pH 7.0 containing 5 mM MgCl2 b, 0.6 ml; 10μ moles NADH, and cellular fraction.
Reaction mixtures were contained in 10 ml vials at 4° C. Vials were sealed with rubber caps. The gaseous phase in the vials was removed using vacuum and then was replaced with a gas mixture of methane or propylene and oxygen at a 1:1, v/v ratio. Oxidation of other gaseous n-alkanes and n-alkanes was examined as described above. For liquid substrates, 10 μl of substrate was used directly.
The products of epoxidation of n-alkenes and hydroxylation of n-alkanes were assayed by flame ionization gas chromatography using a stainless steel column (12'×1/8") packed with 10% Carbowax 20 M on 80/100 Chromosorb W and Porapak Q column. The column temperature was maintained isothermally at 120° C. The carrier gas flow rate was 30 ml/min. of helium. The various products were identified by retention time comparisons and co-chromatography with authentic standards.
Specific activities were expressed as μ moles of products formed per hour per mg. protein. Concentrations of protein in various fractions were determined by the method of Lowry et al., J. Biol. Chem., 193: 265-275 (1951).

[7] = methane-grown washed cells, 30° C., methane to methanol, alkene to 1,2-epoxide

C=CC [Propylene]
Oxidative Conversion Rates [1, 7]: 2.5 μmole/hr/mg protein
Oxidative Conversion Rates [2, 7]: 1.8 μmole/hr/mg protein
Oxidative Conversion Rates [3, 7]: 1.6 μmole/hr/mg protein
Oxidative Conversion Rates [4]: 1.9 μmole/hr/mg protein
Oxidative Conversion Rates [5, 7]: 1.0 μmole/hr/mg protein
Oxidizing Activity (rate of oxidation) in cell fraction ([6]; P(40)): 2.8 μ moles of products formed per
% Distribution in Cell Fraction ([6]; P(40)): 82%
Oxidizing Activity (rate of oxidation) in cell fraction ([6]; P(80)): 2.5 μ moles of products formed per
% Distribution in Cell Fraction ([6]; P(80)): 18%

CCC [Propane]
Conversion Rate to Ketone ([4]; methane-grown cells, propane to acetone): 3.5 μmoles/hr/mg Protein
Conversion Rate ([5]; growth substrate Methane, n-alkane to secondary alcohol): 1.6 μmoles/hr/^5 mg. protein
Conversion Rate [6]: 1.32 μmoles/hr/2.0mg. of protein

CCCC [Butane]
Conversion Rate [5]: 1.2 μmoles/hr/^5 mg. protein
Conversion Rate [6]: 0.79 μmoles/hr/2.0mg. of protein

C [Methane]
Oxidative Conversion Rates [1]: 0.72
Oxidative Conversion Rates [2]: 2.3
Oxidative Conversion Rates [3]: 0.6
Oxidative Conversion Rates [4]: 0.42 μmole/hr/mg protein
Oxidative Conversion Rates [5]: 1.1
Oxidizing Activity (rate of oxidation) in cell fraction ([6]; P(40)): 3.1 μ moles of products formed per
% Distribution in Cell Fraction ([6]; P(40)): 83%
Oxidizing Activity (rate of oxidation) in cell fraction ([6]; P(80)): 3.0 μ moles of products formed per
% Distribution in Cell Fraction ([6]; P(80)): 13%

C=CC=C [Butadiene]
Oxidative Conversion Rates [1, 7]: 1.8 μmole/hr/mg protein
Oxidative Conversion Rates [2, 7]: 3.0 μmole/hr/mg protein
Oxidative Conversion Rates [3, 7]: 2.0 μmole/hr/mg protein
Oxidative Conversion Rates [5, 7]: 2.6 μmole/hr/mg protein
